Assay results: patent publication US11186873B2, “Combination method for treating cancer by targeting immunoglobulin superfamily member 1 (IGSF1) and mesenchymal-epithelial transition factor (MET)” (WELLMARKER BIO CO., LTD., priority 2014, dated 2021)

How the values were obtained:
[1] = tested on: gastric cancer cell lines SNU638 and MKN45; assay: Apoptosis by MET inhibitor, trypan blue exclusion, gastric cancer cells; type: cell-based, human
cleaved caspase 3 = assay: Expression of cleaved caspase 3 after MET inhibitor treatment; type: cell-based, human; conditions: treatment at each concentration; SNU638 and MKN45
[2] = tested on: human gastric cancer cell lines SNU638 and MKN45; assay: Colony forming assay after inhibition of IGSF1 or MET; type: cell-based
Protocol: Moreover, the expression of IGSF1 or MET in human gastric cancer cell lines SNU638 and MKN45 was inhibited, and then the degree of the inhibition of cell growth was determined by colony forming assay.

[3] = tested on: human lung cancer cell lines HCC827 and HCC194; assay: Cell growth (cell counting) after shRNA, lung cancer cells; type: cell-based; conditions: number of cells at 24 hours and 48 hours, shRNA method
Excerpt: The present inventors inhibited the expression of IGSF1 or the expression of MET by the shRNA method in human lung cancer cell lines HCC827 and HCC194 and then determined the inhibition of cell growth.

phosphorylation of MET = assay: Western blot of MET phosphorylation after inhibiting IGSF1 by siRNA/shRNA; type: cell-based, human; conditions: AGS, MKN45, SNU638 and HCC827, concentration-dependent manner, FIG. 2E
Protocol: (§1) To perform Western blot analysis, proteins isolated from the respective cells were separated by SDS-PAGE and transferred to membranes (PolyScreen membranes; New England Nuclear, Boston, Mass., USA). The proteins were incubated with various antibodies (anti-phospho MET, E-cadherin (Cell signaling Technology, Beverly, Mass., USA), anti-MET, anti-r-tubulin (Santa Cruz Biotechnology, Santa Cruz, Calif., USA), anti-IGSF1 (Abnova, Jhouzih, Taipei, Taiwan)) at 4° C. for 12 hours and then washed with 1× TBS-T buffer three times for 10 minutes. The proteins were incubated with appropriate anti-rabbit-HRP or anti-mouse-HRP secondary antibody at room temperature for 2 hours and washed with 1× TBS-T buffer three times for 10 minutes, and then the expression of the proteins was detected using ECL solution (GE Healthcare Bio-Sciences Corp.). […]
(§2) To analyze the changes in MET phosphorylation by inhibition of the expression of IGSF1 as a marker for the induction of HGF-independent MET phosphorylation in human gastric cancer cell line (AGS, MKN45, SNU638) and lung cancer cell line (HCC827), the present inventors inhibited the expression of IGSF1 or MET by the siRNA method and then determined the changes in phosphorylation of the MET protein by western blot analysis.

[4] = tested on: human gastric cancer cell lines SNU638 and MKN45; assay: Cell growth (cell counting) after shRNA, gastric cancer cells; type: cell-based; conditions: number of cells counted for 3 days, shRNA method
Excerpt: The present inventors inhibited the expression of IGSF1 or MET by the shRNA method in human gastric cancer cell lines SNU638 and MKN45 and then determined the inhibition of cell growth.

MET [5] = assay: Real-time PCR of MET expression after shRNA inhibition of IGSF1; type: cell-based, human; conditions: RNA level, SNU638 and MKN45, inhibition of IGSF1 by shRNA method
Excerpt: (§3) The present inventors inhibited the expression of IGSF1 or MET by the shRNA method in human gastric cancer cell lines SNU638 and MKN45 and then determined the changes in expression of each gene by real-time PCR.

IGSF1 [6] = assay: Western blot of IGSF1 expression after MET shRNA; type: cell-based, human; conditions: MET shRNA concentration-dependent manner, FIG. 2E
Protocol: as §1, §2

IGSF1 [7] = assay: Real-time PCR of IGSF1 expression after shRNA inhibition of MET; type: cell-based, human; conditions: RNA level, SNU638 and MKN45, inhibition of MET by shRNA method
Excerpt: as §3

[8] = tested on: human gastric cancer cell lines SNU638 and MKN45; assay: Invasion chamber assay after siRNA, gastric cancer cells; type: cell-based; conditions: siRNA method
Protocol: (§4) HGF-independent human gastric cancer cell lines MKN45 and SNU638 and lung cancer cell line HCC827 were transfected with IGSF1 siRNA or MET siRNA for 48 hours. Plate inserts (BD Biosciences) of […] pore size were placed in a 24-well plate, and each 100 μl of matrigel (BD Biosciences) was seeded on each at a concentration of 200 μg/ml and incubated in a CO2 incubator for 30 minutes. 2.5×10^4 cells transfected with MET or IGSF1 siRNA were placed in the insert plate in a total volume of 100 μl in serum-free media. 400 μl of growth media (RPMI1640+10% FBS) were seeded on the bottom plate and cultured in a CO2 incubator for 24 hours. After 24 hours, the insert plate was washed with PBS, and the remaining cells were wiped with a cotton swab and fixed in 10% formalin for 20 minutes. After washing with purified water, the cells were stained with 0.01% crystal violet solution for 20 minutes and washed with warm water, and then the number of migrated cells was counted. […] The number of cells migrated through the insert plate in the control and the gastric cancer and lung cancer cell lines transfected with MET or IGSF1 siRNA was counted and verified.
(§5) The present inventors inhibited the expression of IGSF1 by the siRNA method in human gastric cancer cell lines SNU638 and MKN45 and then analyzed the degree of the inhibition of invasion and migration by invasion chamber assay and wound healing assay.

[9] = tested on: human gastric cancer cell lines SNU638 and MKN45; assay: Wound healing / migration assay after siRNA, gastric cancer cells; type: cell-based; conditions: siRNA method
Protocol: as §4, §5

MET [10] = assay: MET expression after miR-34a/miR-34c or antagomir transfection, gastric cancer cells; type: cell-based, human; conditions: for expression of c-MET: MKN45 and SNU638, lower panel of FIG. 6B; for expression of MET: cell line SNU638, real-time PCR, upper panel of FIG. 6B
Excerpt: (§6) Moreover, as shown in the lower panel of FIG. 6B, as a result of analyzing the expression of MET and IGSF1 after transfecting miR-34a or miR-34c into human gastric cancer cell lines MKN45 and SNU638, it was observed that the expression of IGSF1 as a marker for the induction of HGF-independent MET phosphorylation and the expression of c-MET were inhibited by miR-34a or miR-34c.

pMET = pMET expression after miRNA/antagomir transfection, lung cancer cells; type: cell-based, human; conditions: lung cancer cell lines HCC827 and H1944
MMP9 = MMP9 expression after miRNA transfection; type: cell-based, human; conditions: SNU638; lower panel of FIG. 6D
Excerpt: Furthermore, as shown in the lower panel of FIG. 6D, the transfection of gastric cancer cell line SNU638 with mir-34a or mir-34c inhibited the migration of cells and decreased the expression of MMP9.

MET [11] = assay: Luciferase 3'UTR reporter assay in human 293 cell line, MET; type: cell-based; conditions: wild-type vs mutated 3'UTR luciferase plasmids
IGSF1 [12] = assay: Luciferase 3'UTR reporter assay in human 293 cell line, IGSF1; type: cell-based; conditions: wild-type vs mutated 3'UTR luciferase plasmids
IGSF1 [13] = assay: IGSF1 expression after miR-34a/miR-34c or antagomir transfection, gastric cancer cells; type: cell-based, human
Excerpt: as §6

gastric cancer cell line = assay: Cell invasion after miRNA or antagomir transfection, gastric cancer cells; type: cell-based, human; conditions: middle panel of FIG. 6D
Protocol: […] Plate inserts (BD Biosciences) of […] pore size were placed in a 24-well plate, and each 100 μl of matrigel (BD Biosciences) was seeded on each at a concentration of 200 μg/ml and incubated in a CO2 incubator for 30 minutes. […] 400 μl of growth media (RPMI1640+10% FBS) were seeded on the bottom plate and cultured in a CO2 incubator for 24 hours. After 24 hours, the insert plate was washed with PBS, and the remaining cells were wiped with a cotton swab and fixed in 10% formalin for 20 minutes. After washing with purified water, the cells were stained with 0.01% crystal violet solution for 20 minutes and washed with warm water, and then the number of migrated cells was counted. In the case of the migration assay, the same procedure as above was carried out without coating the insert plate. The number of cells migrated through the insert plate in the control and the gastric cancer and lung cancer cell lines transfected with MET or IGSF1 siRNA was counted and verified.

[14] = tested on: human gastric cancer cell line SNU638; assay: Cell growth after miRNA transfection, trypan blue exclusion; type: cell-based; conditions: 300 nM, compared with the control group
Protocol: Human miRNA-34a (SEQ ID NO: 1; […]) or miRNA-34c (SEQ ID NO: 2; […]) was purchased from Thermo Fisher Scientific. 4×10^5 HGF-independent human gastric cancer SNU638 cells were seeded and transfected with 300 nM of miRNA-34a or miRNA-34c, and then the number of cells was counted using trypan blue exclusion method for 0, 1, 2 and 3 days.
4×10^5 HGF-independent human gastric cancer SNU638 cells or 3×10^5 MKN45 cells were transfected with 300 nM of miRNA-34a (SEQ ID NO: 1) or miRNA-34c (SEQ ID NO: 2), and then the number of cells was counted using trypan blue exclusion method for 0, 1, 2 and 3 days.

[15] = tested on: gastric cancer cell lines SNU638 and MKN45; assay: Cell migration after miRNA or antagomir transfection, gastric cancer cells; type: cell-based, human; conditions: for migration of cells: SNU638, lower panel of FIG. 6D; for cell migration: SNU638 and MKN45, upper panel of FIG. 6D
IGSF1 [16] = assay: IGSF1 expression after miRNA transfection, lung cancer cells; type: cell-based, human; conditions: lung cancer cell lines HCC827 and H1944
[17] = tested on: relevant signaling pathway; assay: Expression of the relevant signaling pathway after miRNA transfection; type: cell-based; conditions: human gastric cancer cell line; lower panel of FIG. 6C
[18] = MKN45 and SNU638, lower panel of FIG. 6B
[19] = cell line SNU638, real-time PCR, upper panel of FIG. 6B

Compound	number of colonies [2]	cell growth [3]	cell growth [4]	expression of c-MET (MET [10])	expression of MET (MET [10])	expression of pMET (pMET)	expression of MMP9 (MMP9)	luciferase activity of MET (MET [11])	luciferase activity of IGSF1 (IGSF1 [12])	expression of IGSF1 (IGSF1 [13]; [18])	expression of IGSF1 (IGSF1 [13]; [19])	inhibition of the invasion of cells (gastric cancer cell line)	growth of cancer cells [14]	migration of cells [15]	cell migration [15]	expression of IGSF1 (IGSF1 [16])	expression of the relevant signaling pathway [17]	further results
Cc1[nH]c(/C=C2\C(=O)Nc3ccc(S(=O)(=O)Cc4c(Cl)cccc4Cl)cc32)c(C)c1C(=O)N1CCC[C@@H]1CN1CCCC1 [PHA665752]																		induction of apoptosis ([1]; trypan blue exclusion, treatment at each concentration): induction of apoptosis; response to the MET inhibitor ([1]; with inhibition of the expression of IGSF1): increased; expression of cleaved caspase 3 (cleaved caspase 3): increased
IGSF1 shRNA: shRNA against IGSF1, SEQ ID NO: 6, 5′-CAAAGAUGGAAGUGAAAUA UCUCUAUUUCACUUCCAUCUUUGUU-3′ (CAAAGAUGGAAGUGAAAUAUCUCUAUUUCACUUCCAUCUUUGUU; siRNA; shRNA hairpin, further chemistry not given here)	decreased	inhibited	inhibited															phosphorylation of MET (phosphorylation of MET): decreased; expression of MET (MET [5]): decreased
MET shRNA: shRNA against MET, SEQ ID NO: 7, 5′-GCCAGCCUGAAUGAUGACAUCUCUGUCAUCAUUCAGGCUGGCUU-3′ (siRNA; shRNA hairpin, further chemistry not given here)	decreased	inhibited	inhibited															expression of IGSF1 (IGSF1 [6]): decreased; expression of IGSF1 (IGSF1 [7]): decreased
MET siRNA: siRNA against MET, SEQ ID NO: 5, 5′-AAAGATAAACCTCTCATAATG-3′ (AAAGAUAAACCUCUCAUAAUG; listed as RNA, chemistry not given here)																		invasion [8]: inhibited; migration [9]: inhibited
miR-34a: Human miRNA-34a, SEQ ID NO: 1, UGGCAGUGUCUUAGCUGGUUGU, purchased from Thermo Fisher Scientific (listed as RNA, chemistry not given here)				inhibited	decreased	decreased	decreased	inhibited only in the wild type	inhibited only in the wild type	inhibited	decreased	about 50%	significantly inhibited	inhibited	inhibited	decreased	decreased	
miR-34c: Human miRNA-34c, SEQ ID NO: 2, AGGCAGUGUAGUUAGCUGAUUGC, purchased from Thermo Fisher Scientific (listed as RNA, chemistry not given here)				inhibited	decreased	decreased	decreased	inhibited only in the wild type	inhibited only in the wild type	inhibited	decreased	about 50%	significantly inhibited	inhibited	inhibited	decreased	decreased	
